{"source": "PubChem BioAssay AID2060484", "about": "(Molecular Pharmacology Branch, DTP, NCI, 2025)", "tested_on": "SUM149PT spheroids with HUVEC/MSC, viability", "experiment": "Anticancer human tumor SUM149PT cell line growth inhibition [GQUAD];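 for all read-outs here: spheroids exposed to drugs for seven days before readout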;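 for viability, T/C: percent viability relative to DMSO vehicle control taken as 100%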", "details": "for IC50: curve of first compound; for viability, T/C: stronger effect = lower value", "outline": "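Tumor cells were grown as complex spheroids with HUVEC endothelial cells and mesenchymal stem cells as stroma. G-quadruplex stabilizers were combined with targeted agents over half-log dilutions from near the clinical Cmax, or from 10 microM.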", "key": {"[1]": {"details": "second compound 0.0316 µM, first compound 0.0316 µM"}, "[2]": {"details": "second compound 0.0316 µM, first compound 0.316 µM"}, "[3]": {"details": "second compound 0.1 µM, first compound 0.0316 µM"}, "[4]": {"details": "second compound 0.1 µM, first compound 0.316 µM"}, "[5]": {"details": "second compound 0.316 µM, first compound 0.0316 µM"}, "[6]": {"details": "second compound 0.316 µM, first compound 0.316 µM"}, "[7]": {"details": "second compound 1 µM, first compound 0.0316 µM"}, "[8]": {"details": "second compound 1 µM, first compound 0.316 µM"}, "[9]": {"details": "second compound 3.16 µM, first compound 0.0316 µM"}, "[10]": {"details": "second compound 3.16 µM, first compound 0.316 µM"}, "[11]": {"details": "second compound 10 µM, first compound 0.0316 µM"}, "[12]": {"details": "second compound 10 µM, first compound 0.316 µM"}}}
{"smiles": "CC[C@@]1(O)C(=O)OCc2c1cc1n(c2=O)Cc2cc3c(CN(C)C)c(O)ccc3nc2-1", "note": "+ CN(C)c1ccc(Nc2c3ccc(NC(=O)CCN4CCCC4)cc3nc3cc(NC(=O)CCN4CCCC4)ccc23)cc1", "values": [{"measurement": "IC50", "setting": "second compound 0.0316 µM", "result": "> 316", "unit": "nM"}, {"measurement": "IC50", "setting": "second compound 0.1 µM", "result": "> 316", "unit": "nM"}, {"measurement": "IC50", "setting": "second compound 0.316 µM", "result": "> 316", "unit": "nM"}, {"measurement": "IC50", "setting": "second compound 1 µM", "result": 206, "unit": "nM"}, {"measurement": "IC50", "setting": "second compound 3.16 µM", "result": 84, "unit": "nM"}, {"measurement": "IC50", "setting": "second compound 10 µM", "result": 98.1, "unit": "nM"}, {"measurement": "viability, T/C", "setting": "second compound 0.0316 µM, first compound 0.000999 µM", "result": 110, "unit": "%"}, {"measurement": "viability, T/C", "setting": "second compound 0.0316 µM, first compound 0.00316 µM", "result": 87.6, "unit": "%"}, {"measurement": "viability, T/C", "setting": "second compound 0.0316 µM, first compound 0.00999 µM", "result": 109, "unit": "%"}, {"measurement": "viability, T/C", "setting": "[1]", "result": 82.2, "unit": "%"}, {"measurement": "viability, T/C", "setting": "second compound 0.0316 µM, first compound 0.0999 µM", "result": 55.9, "unit": "%"}, {"measurement": "viability, T/C", "setting": "[2]", "result": 57, "unit": "%"}, {"measurement": "viability, T/C", "setting": "second compound 0.1 µM, first compound 0.000999 µM", "result": 102, "unit": "%"}, {"measurement": "viability, T/C", "setting": "second compound 0.1 µM, first compound 0.00316 µM", "result": 102, "unit": "%"}, {"measurement": "viability, T/C", "setting": "second compound 0.1 µM, first compound 0.00999 µM", "result": 103, "unit": "%"}, {"measurement": "viability, T/C", "setting": "[3]", "result": 88.4, "unit": "%"}, {"measurement": "viability, T/C", "setting": "second compound 0.1 µM, first compound 0.0999 µM", "result": 56, "unit": "%"}, {"measurement": "viability, T/C", "setting": "[4]", "result": 57.2, "unit": "%"}, {"measurement": "viability, T/C", "setting": "second compound 0.316 µM, first compound 0.000999 µM", "result": 95.6, "unit": "%"}, {"measurement": "viability, T/C", "setting": "second compound 0.316 µM, first compound 0.00316 µM", "result": 92.1, "unit": "%"}, {"measurement": "viability, T/C", "setting": "second compound 0.316 µM, first compound 0.00999 µM", "result": 90, "unit": "%"}, {"measurement": "viability, T/C", "setting": "[5]", "result": 83.6, "unit": "%"}, {"measurement": "viability, T/C", "setting": "second compound 0.316 µM, first compound 0.0999 µM", "result": 51.6, "unit": "%"}, {"measurement": "viability, T/C", "setting": "[6]", "result": 52.9, "unit": "%"}, {"measurement": "viability, T/C", "setting": "second compound 1 µM, first compound 0.000999 µM", "result": 87.8, "unit": "%"}, {"measurement": "viability, T/C", "setting": "second compound 1 µM, first compound 0.00316 µM", "result": 88.2, "unit": "%"}, {"measurement": "viability, T/C", "setting": "second compound 1 µM, first compound 0.00999 µM", "result": 80.2, "unit": "%"}, {"measurement": "viability, T/C", "setting": "[7]", "result": 78.3, "unit": "%"}, {"measurement": "viability, T/C", "setting": "second compound 1 µM, first compound 0.0999 µM", "result": 54, "unit": "%"}, {"measurement": "viability, T/C", "setting": "[8]", "result": 47.6, "unit": "%"}, {"measurement": "viability, T/C", "setting": "second compound 3.16 µM, first compound 0.000999 µM", "result": 94.7, "unit": "%"}, {"measurement": "viability, T/C", "setting": "second compound 3.16 µM, first compound 0.00316 µM", "result": 84.4, "unit": "%"}, {"measurement": "viability, T/C", "setting": "second compound 3.16 µM, first compound 0.00999 µM", "result": 102, "unit": "%"}, {"measurement": "viability, T/C", "setting": "[9]", "result": 69.7, "unit": "%"}, {"measurement": "viability, T/C", "setting": "second compound 3.16 µM, first compound 0.0999 µM", "result": 47.9, "unit": "%"}, {"measurement": "viability, T/C", "setting": "[10]", "result": 45.1, "unit": "%"}, {"measurement": "viability, T/C", "setting": "second compound 10 µM, first compound 0.000999 µM", "result": 92.5, "unit": "%"}, {"measurement": "viability, T/C", "setting": "second compound 10 µM, first compound 0.00316 µM", "result": 90, "unit": "%"}, {"measurement": "viability, T/C", "setting": "second compound 10 µM, first compound 0.00999 µM", "result": 86.4, "unit": "%"}, {"measurement": "viability, T/C", "setting": "[11]", "result": 74.2, "unit": "%"}, {"measurement": "viability, T/C", "setting": "second compound 10 µM, first compound 0.0999 µM", "result": 48.7, "unit": "%"}, {"measurement": "viability, T/C", "setting": "[12]", "result": 44.9, "unit": "%"}]}
{"smiles": "COc1ccc([C@@H](O)c2cc(-c3ncnc4cc(N5CCOCC5)ccc34)c(F)cc2Cl)nn1", "note": "+ Cc1[nH]c2ccc(F)cc2c1-c1nc2c3cccnc3c3ncccc3c2[nH]1", "values": [{"measurement": "IC50", "setting": "second compound 0.0316 µM", "result": 761, "unit": "nM"}, {"measurement": "IC50", "setting": "second compound 0.1 µM", "result": 1070, "unit": "nM"}, {"measurement": "IC50", "setting": "second compound 0.316 µM", "result": 1130, "unit": "nM"}, {"measurement": "IC50", "setting": "second compound 1 µM", "result": 1160, "unit": "nM"}, {"measurement": "IC50", "setting": "second compound 3.16 µM", "result": 1050, "unit": "nM"}, {"measurement": "IC50", "setting": "second compound 10 µM", "result": 874, "unit": "nM"}, {"measurement": "viability, T/C", "setting": "[1]", "result": 95.7, "unit": "%"}, {"measurement": "viability, T/C", "setting": "second compound 0.0316 µM, first compound 0.1 µM", "result": 90.1, "unit": "%"}, {"measurement": "viability, T/C", "setting": "[2]", "result": 65.6, "unit": "%"}, {"measurement": "viability, T/C", "setting": "second compound 0.0316 µM, first compound 1 µM", "result": 45.8, "unit": "%"}, {"measurement": "viability, T/C", "setting": "second compound 0.0316 µM, first compound 3.16 µM", "result": 29.9, "unit": "%"}, {"measurement": "viability, T/C", "setting": "second compound 0.0316 µM, first compound 10 µM", "result": 23.9, "unit": "%"}, {"measurement": "viability, T/C", "setting": "[3]", "result": 92.9, "unit": "%"}, {"measurement": "viability, T/C", "setting": "second compound 0.1 µM, first compound 0.1 µM", "result": 92.9, "unit": "%"}, {"measurement": "viability, T/C", "setting": "[4]", "result": 79.3, "unit": "%"}, {"measurement": "viability, T/C", "setting": "second compound 0.1 µM, first compound 1 µM", "result": 52.3, "unit": "%"}, {"measurement": "viability, T/C", "setting": "second compound 0.1 µM, first compound 3.16 µM", "result": 29.4, "unit": "%"}, {"measurement": "viability, T/C", "setting": "second compound 0.1 µM, first compound 10 µM", "result": 27.6, "unit": "%"}, {"measurement": "viability, T/C", "setting": "[5]", "result": 104, "unit": "%"}, {"measurement": "viability, T/C", "setting": "second compound 0.316 µM, first compound 0.1 µM", "result": 87.3, "unit": "%"}, {"measurement": "viability, T/C", "setting": "[6]", "result": 83, "unit": "%"}, {"measurement": "viability, T/C", "setting": "second compound 0.316 µM, first compound 1 µM", "result": 47.1, "unit": "%"}, {"measurement": "viability, T/C", "setting": "second compound 0.316 µM, first compound 3.16 µM", "result": 39.4, "unit": "%"}, {"measurement": "viability, T/C", "setting": "second compound 0.316 µM, first compound 10 µM", "result": 28.7, "unit": "%"}, {"measurement": "viability, T/C", "setting": "[7]", "result": 102, "unit": "%"}, {"measurement": "viability, T/C", "setting": "second compound 1 µM, first compound 0.1 µM", "result": 102, "unit": "%"}, {"measurement": "viability, T/C", "setting": "[8]", "result": 82.9, "unit": "%"}, {"measurement": "viability, T/C", "setting": "second compound 1 µM, first compound 1 µM", "result": 52.4, "unit": "%"}, {"measurement": "viability, T/C", "setting": "second compound 1 µM, first compound 3.16 µM", "result": 32.5, "unit": "%"}, {"measurement": "viability, T/C", "setting": "second compound 1 µM, first compound 10 µM", "result": 23.9, "unit": "%"}, {"measurement": "viability, T/C", "setting": "[9]", "result": 95.2, "unit": "%"}, {"measurement": "viability, T/C", "setting": "second compound 3.16 µM, first compound 0.1 µM", "result": 78.9, "unit": "%"}, {"measurement": "viability, T/C", "setting": "[10]", "result": 76.7, "unit": "%"}, {"measurement": "viability, T/C", "setting": "second compound 3.16 µM, first compound 1 µM", "result": 49.8, "unit": "%"}, {"measurement": "viability, T/C", "setting": "second compound 3.16 µM, first compound 3.16 µM", "result": 31.8, "unit": "%"}, {"measurement": "viability, T/C", "setting": "second compound 3.16 µM, first compound 10 µM", "result": 25.9, "unit": "%"}, {"measurement": "viability, T/C", "setting": "[11]", "result": 89.8, "unit": "%"}, {"measurement": "viability, T/C", "setting": "second compound 10 µM, first compound 0.1 µM", "result": 82.6, "unit": "%"}, {"measurement": "viability, T/C", "setting": "[12]", "result": 71.7, "unit": "%"}, {"measurement": "viability, T/C", "setting": "second compound 10 µM, first compound 1 µM", "result": 46.3, "unit": "%"}, {"measurement": "viability, T/C", "setting": "second compound 10 µM, first compound 3.16 µM", "result": 30.9, "unit": "%"}, {"measurement": "viability, T/C", "setting": "second compound 10 µM, first compound 10 µM", "result": 23.3, "unit": "%"}]}
